The text below walks through data of patent US20240245673A1, “Papain-like protease (PLpro) inhibitors” (Pfizer Inc., priority 2022, published 2024).

By IC50 is commonly meant the concentration needed to halve the response being measured.

In this test the target is SARS-CoV-2 Papain like protease (PLpro) (Severe acute respiratory syndrome coronavirus 2 (2019-nCoV) (SARS-CoV-2), UniProt P0DTD1). As to the kind of experiment: Papain Like Protease (PLpro) biochemical assay with profluorogenic substrate Z-RLRGG-AMC. The following applies: SARS-CoV-2 PLpro 6.25 nM, 25 μM Z-RLRGG-AMC substrate, 60 minute reaction; read-out: IC50.
On to `CCOC(=O)[C@H]1O[C@@H]1C(=O)NNC(=O)CCc1ccccc1C(=O)N[C@H](C)c1cc(-c2cnn(C)c2)nc2ccccc12` [Example 227, ethyl (2S,3S)-3-(2-(3-(2-(((R)-1-(2-(1-methyl-1H-pyrazol-4-yl)quinolin-4-yl)ethyl)carbamoyl)phenyl)propanoyl)hydrazine-1-carbonyl)oxirane-2-carboxylate], for which the IC50 was 0.002 µM.
For the compound `Cc1ccc(CN)cc1C(=O)N[C@H](C)c1cc(-c2cc(C(=O)O)c[nH]2)nc2ccccc12` [Example 20, (R)-5-(4-(1-(5-(aminomethyl)-2-methylbenzamido)ethyl)quinolin-2-yl)-1H-pyrrole-3-carboxylic acid], the IC50 was found to be 0.041 µM.
As to `COCC(OCc1cscn1)c1ccc(C(=O)NC2(c3cc(-c4cnn(C)c4)cc4nc(C)ccc34)CC2)c(C)c1` (stereo not shown) [Example 353, 4-(2-methoxy-1-(thiazol-4-ylmethoxy)ethyl)-2-methyl-N-(1-(2-methyl-7-(1-methyl-1H-pyrazol-4-yl)quinolin-5-yl)cyclopropyl)benzamide], the IC50 is under 0.001 µM.
Turning to `Cc1cc(COCc2cscn2)ccc1C(=O)NC1(c2cc(-c3cc(C(=O)N(C)CCN(C)C)n[nH]3)nc3ccccc23)CC1` [Example 329, N-(2-(dimethylamino)ethyl)-N-methyl-5-(4-(1-(2-methyl-4-((thiazol-4-ylmethoxy)methyl)benzamido)cyclopropyl)quinolin-2-yl)-1H-pyrazole-3-carboxamide], the IC50 was under 0.001 µM.
In the case of `Cc1ccc(CN)cc1C(=O)NC(C)c1cc(-c2cc(C(=O)N(C)C)c[nH]2)cc2ccccc12` (stereo not shown) [Example 72, 5-(4-(1-(5-(aminomethyl)-2-methylbenzamido)ethyl)naphthalen-2-yl)-N,N-dimethyl-1H-pyrrole-3-carboxamide], the IC50 came out at 0.013 µM.
For `COCC(OCc1cscn1)c1ccc(C(=O)NC2(c3cc(-c4cnn(C)c4)nc4ccccc34)CC2)c(C)c1` (single isomer, unassigned) [Example 325], the IC50 was determined as 0.001 µM.
In the case of `Cc1ccccc1C(=O)NC(C)c1cc(NCC(=O)N2CCOCC2)nc2ccccc12` (stereo not shown) [Example 146, 2-methyl-N-[1-(2-{[2-(morpholin-4-yl)-2-oxoethyl]amino}-quinolin-4-yl)ethyl]benzamide] it was 4.5 µM.
Regarding `Cc1ccccc1C(=O)NC(C)c1cc(-c2cnn(CC(F)F)c2)nc2ccccc12` (stereo not shown) [Example 120, N-(1-{2-[1-(2,2-difluoroethyl)-1H-pyrazol-4-yl]quinolin-4-yl}ethyl)-2-methylbenzamide], the IC50 was 0.345 µM.
In the case of `Cc1cc(COCc2cscn2)ccc1C(=O)NC1(c2cc(-c3cnn(C)c3)nc3ccccc23)CC1` [Example 323, 2-methyl-N-(1-(2-(1-methyl-1H-pyrazol-4-yl)quinolin-4-yl)cyclopropyl)-4-((thiazol-4-ylmethoxy)methyl)benzamide] it was under 0.001 µM; in that of `Cc1ccccc1C(=O)NC(C)c1cc(-c2ccc3nonc3c2)nc2ccccc12` (stereo not shown) [Example 111, N-{1-[2-(2,1,3-benzoxadiazol-5-yl)quinolin-4-yl]ethyl}-2-methylbenzamide], 17.3 µM; in that of `CNc1cc([C@@H](C)NC(=O)c2ccccc2C)c2ccccc2n1` [Example 41, (R)-2-methyl-N-(1-(2-(methylamino)quinolin-4-yl)ethyl)benzamide], 1.01 µM.
In the case of `Cc1ccc(CN)cc1C(=O)N[C@H](C)c1cc(-c2cnn(C)c2)nc2ccccc12` [Example 11, (R)-5-(aminomethyl)-2-methyl-N-(1-(2-(1-methyl-1H-pyrazol-4-yl)quinolin-4-yl)ethyl)benzamide] it was 0.027 µM; in that of `Cc1cc(C2(NC(=O)c3ncc[nH]3)CC2)ccc1C(=O)N[C@H](C)c1cc(-c2cnn(C)c2)nc2ccccc12` [Example 213, (R)-N-(1-(3-methyl-4-((1-(2-(1-methyl-1H-pyrazol-4-yl)quinolin-4-yl)ethyl)carbamoyl)phenyl)cyclopropyl)-1H-imidazole-2-carboxamide], 0.219 µM.
